Assay results taken from patent US10632125B2, “MTH1 inhibitors for treatment of inflammatory and autoimmune conditions” (THOMAS HELLEDAYS STIFTELSE FÖR MEDICINSK FORSKNING, priority 2014, dated 2020).

target: MTH1 (Homo sapiens, UniProt P36639); assay: MTH1 enzymatic assay (malachite green, coupled to pyrophosphatase); format: biochemical; details: dGTP 100 μM, MTH1 6 nM; 96- or 384-well format; read-out: IC50
Protocol: MTH1 catalyzes the hydrolysis of dGTP to dGMP and PPi. By coupling the reaction to pyrophosphatase added in excess PPi is converted to Pi that can be detected by using the malachite green assay reagent. […] 96-well method: Briefly, the compound to be analyzed is diluted in DMSO in a 1:3 dilution series generating 12 different compound concentrations giving a final DMSO concentration of 1% in the assay well. MTH1 diluted in assay buffer (100 mM Tris-acetate, 40 mM NaCl, 10 mM magnesium acetate, 1 mM DTT and 0.005% Tween 20) fortified with E. coli pyrophosphatase (0.2 U/ml) is added to a final concentration of 6 nM. dGTP diluted in assay buffer is added to a final concentration of 100 μM. The reaction mixture is incubated for 15 minutes at 22° C. To 100 μl reaction mixture, 25 μl Malachite green assay regent (0.095% Malachite green in 17% H2SO4, 1.5% Ammonium molybdate, 0.17% Tween 20) is added, followed by incubation with shaking for 15 minutes at 22° C. The absorbance of the assay plate is read at 630 nm using a Hidex Sense Multilabel plate reader. The IC50 value is determined by fitting a dose response curve to the data points using nonlinear regression analysis and the equation Y=Bottom+(Top-Bottom)/(1+10^((Log IC50−X)*HillSlope)), where Y is the read absorbance at 630 nm and X is log [compound].
384-Well Method: The compounds to be tested are nano-dispensed, in 11 concentrations, directly in assay plates, with a final DMSO concentration <1%. The protocol and the reaction mixture are the same as for the 96-well assay, with a total reaction volume of 50 μl/well to which 10 μl of Malachite green reagent is added. All additions to the assay plates are made with multidrop.

IC50, < 0.2 µM:
CNc1cc(-c2cccc(C(F)(F)F)c2Cl)nc(N)n1 [Example 91, 6-[2-chloro-3-(trifluoromethyl)phenyl]-4-N-methylpyrimidine-2,4-diamine]
CNc1cc(-c2cccc(F)c2Cl)nc(N)n1 [Example 92, 6-(2-chloro-3-fluorophenyl)-4-N-methylpyrimidine-2,4-diamine]
CNc1cc(-c2cccc(Cl)c2C)nc(N)n1 [Example 94, 6-(3-chloro-2-methylphenyl)-4-N-methylpyrimidine-2,4-diamine]
CNc1cc(-c2cc(OC)cc(Cl)c2Cl)nc(N)n1 [Example 99, 6-(2,3-dichloro-5-methoxyphenyl)-4-N-methylpyrimidine-2,4-diamine]
CNc1cc(-c2ccc(O)cc2)nc(N)n1 [Example 100, 4-[2-amino-6-(methylamino)pyrimidin-4-yl]phenol]
CNc1cc(-c2ccc(C(=O)N3CCOCC3)c(Cl)c2)nc(N)n1 [Example 104, 6-[3-chloro-4-(morpholine-4-carbonyl)phenyl]-4-N-methylpyrimidine-2,4-diamine]
CNc1cc(-c2ccc(/C=C/C(=O)OC)cc2)nc(N)n1 [Example 106, methyl (2E)-3-{4-[2-amino-6-(methylamino)pyrimidin-4-yl]phenyl}prop-2-enoate]
CNc1cc(-c2cccc(/C=C/C(=O)OC)c2)nc(N)n1 [Example 107, methyl (2E)-3-{3-[2-amino-6-(methylamino)pyrimidin-4-yl]phenyl}prop-2-enoate]
CNc1cc(-c2ccc(C(C)=O)cc2)nc(N)n1 [Example 109, 1-(4-(2-Amino-6-(methylamino)pyrimidin-4-yl)phenyl)ethanone]
Cc1cccc(-c2cc(NC3CC3)nc(N)n2)c1C [Example 114, 4-N-cyclopropyl-6-(2,3-dimethylphenyl)pyrimidine-2,4-diamine]
CNc1cc(-c2c[nH]c3ccccc23)nc(N)n1 [Example 116, 6-(1H-indol-3-yl)-4-N-methylpyrimidine-2,4-diamine]
Cc1cccc(-c2cc(NCCc3ccccc3)nc(N)n2)c1C [Example 118, 6-(2,3-dimethylphenyl)-4-N-(2-phenylethyl)pyrimidine-2,4-diamine]
Cc1cccc(-c2nc(N)nc3c2CCCN3)c1C [Example 121, 4-(2,3-dimethylphenyl)-5H,6H,7H,8H-pyrido[2,3-d]pyrimidin-2-amine]
Nc1nc2c(c(-c3cccc(Cl)c3Cl)n1)CCCN2 [Example 122, 4-(2,3-dichlorophenyl)-5H,6H,7H,8H-pyrido[2,3-d]pyrimidin-2-amine]
Nc1nc2c(c(-c3cn(S(=O)(=O)c4ccccc4)c4ccccc34)n1)CCCN2 [Example 123, 4-[1-(benzenesulfonyl)-1H-indol-3-yl]-5H,6H,7H,8H-pyrido[2,3-d]pyrimidin-2-amine]
CNc1cc(-c2cc(F)cc(F)c2)nc(N)n1 [Example 124, 6-(3,5-difluorophenyl)-4-N-methylpyrimidine-2,4-diamine]
COc1ccc(CCNc2cc(-c3cccc(C)c3C)nc(N)n2)cc1 [Example 125, 6-(2,3-dimethylphenyl)-4-N-[2-(4-methoxyphenyl)ethyl]pyrimidine-2,4-diamine]
Cc1cccc(-c2cc(NCCc3ccc(Cl)cc3)nc(N)n2)c1C [Example 128, 4-N-[2-(4-chlorophenyl)ethyl]-6-(2,3-dimethylphenyl)pyrimidine-2,4-diamine]
Cc1cccc(-c2cc(NCC(C)c3ccccc3)nc(N)n2)c1C (stereo not drawn) [Example 130, 6-(2,3-dimethylphenyl)-4-N-(2-phenylpropyl)pyrimidine-2,4-diamine]
Cc1cccc(-c2cc(NCCNc3ccccc3)nc(N)n2)c1C [Example 133, 6-(2,3-dimethylphenyl)-4-N-[2-(phenylamino)ethyl]pyrimidine-2,4-diamine]
Cc1cccc(-c2cc(NCCc3c[nH]c4ccccc34)nc(N)n2)c1C [Example 134, 6-(2,3-dimethylphenyl)-4-N-[2-(1H-indol-3-yl)ethyl]pyrimidine-2,4-diamine]
Cc1cccc(-c2cc(NCCN3CCNC3=O)nc(N)n2)c1C [Example 136, 1-(2-{[2-amino-6-(2,3-dimethylphenyl)pyrimidin-4-yl]amino}ethyl)imidazolidin-2-one]
Cc1cccc(-c2cc(NCCCN3CCCC3=O)nc(N)n2)c1C [Example 137, 1-(3-{[2-amino-6-(2,3-dimethylphenyl)pyrimidin-4-yl]amino}propyl)pyrrolidin-2-one]
CNc1cc(-c2cc(C)c(O)c(C)c2)nc(N)n1 [Example 138, 4-[2-amino-6-(methylamino)pyrimidin-4-yl]-2,6-dimethylphenol]
CNc1cc(-c2ccc(O)c(OC)c2)nc(N)n1 [Example 139, 4-[2-amino-6-(methylamino)pyrimidin-4-yl]-2-methoxyphenol]
CNc1cc(-c2ccc(O)c(F)c2)nc(N)n1 [Example 140, 4-[2-amino-6-(methylamino)pyrimidin-4-yl]-2-fluorophenol]
CNc1cc(-c2ccccc2C)nc(N)n1 [Example 143, 4-N-methyl-6-(2-methylphenyl)pyrimidine-2,4-diamine]
CNc1cc(-c2ccc3[nH]ncc3c2C)nc(N)n1 [Example 145, 4-N-methyl-6-(4-methyl-1H-indazol-5-yl)pyrimidine-2,4-diamine]
CNc1cc(-c2cccc(C)c2)nc(N)n1 [Example 147, 4-N-methyl-6-(3-methylphenyl)pyrimidine-2,4-diamine]
Cc1ccc(S(=O)(=O)n2cc(-c3cc(NC4CCC4)nc(N)n3)c3ccccc32)cc1 [Example 152, 4-N-cyclobutyl-6-[1-(4-methylbenzenesulfonyl)-1H-indol-3-yl]pyrimidine-2,4-diamine]
Cc1cccc(-c2cc(NC3CCCC3)nc(N)n2)c1C [Example 153, 4-N-cyclopentyl-6-(2,3-dimethylphenyl)pyrimidine-2,4-diamine]
CNc1cc(-c2cn(S(=O)(=O)c3ccc(C(F)(F)F)cc3)c3ccccc23)nc(N)n1 [Example 155, 4-N-methyl-6-{1-[4-(trifluoromethyl)benzenesulfonyl]-1H-indol-3-yl}pyrimidine-2,4-diamine]
Cc1cccc(-c2cc(NC3CCCCC3)nc(N)n2)c1C [Example 156, 4-N-cyclohexyl-6-(2,3-dimethylphenyl)pyrimidine-2,4-diamine]
CCNc1cc(-c2cccc(C)c2C)nc(N)n1 [Example 158, 6-(2,3-dimethylphenyl)-4-N-ethylpyrimidine-2,4-diamine]
Cc1ccc(S(=O)(=O)n2cc(-c3cc(NC(C)C)nc(N)n3)c3ccccc32)cc1 [Example 163, 6-[1-(4-methylbenzenesulfonyl)-1H-indol-3-yl]-4-N-(propan-2-yl)pyrimidine-2,4-diamine]
CNc1cc(-c2coc3ccccc23)nc(N)n1 [Example 170, 6-(1-benzofuran-3-yl)-4-N-methylpyrimidine-2,4-diamine]
CNc1cc(-c2csc3ccccc23)nc(N)n1 [Example 172, 6-(1-benzothiophen-3-yl)-4-N-methylpyrimidine-2,4-diamine]
CC(C)Nc1cc(-c2cccc(Cl)c2Cl)nc(N)n1 [Example 176, 6-(2,3-dichlorophenyl)-4-N-(propan-2-yl)pyrimidine-2,4-diamine]
Nc1nc(NCC2CC2)cc(-c2cccc(Cl)c2Cl)n1 [Example 177, 4-N-(cyclopropylmethyl)-6-(2,3-dichlorophenyl)pyrimidine-2,4-diamine]
CNc1cc(-c2cc(Br)ccc2OC)nc(N)n1 [Example 183, 6-(5-bromo-2-methoxyphenyl)-4-N-methylpyrimidine-2,4-diamine]
CNc1cc(-c2cc(C)ccc2C)nc(N)n1 [Example 184, 6-(2,5-dimethylphenyl)-4-N-methylpyrimidine-2,4-diamine]
CNc1cc(-c2cccnc2C(F)(F)F)nc(N)n1 [Example 185, 4-N-methyl-6-[2-(trifluoromethyl)pyridin-3-yl]pyrimidine-2,4-diamine]
